Experimental data: patent publication US20210137948A1, “TREATMENT OF INFECTIONS CAUSED BY NEISSERIA GONOCOCCUS USING A HALOGENATED SALICYLANILIDE” (priority 2018, published 2021)
In brackets after ≈: the same amount, converted by molar mass. Read-outs that look alike come from different tables or passages of the source.

How the values were obtained:
[1] = test system: Neisseria gonorrhoeae CDC panel consisting of 48 isolates; assay: Agar dilution MIC, CDC panel of 48 isolates (Example 2); format: cell-based; conditions: for MIC: Neisseria gonorrhoeae, read-out: Minimal inhibitory concentration; for in vitro activity (in words): against N. gonococcus (N. gonorrhoeae), Example 2 conclusion
Procedure: Neisseria gonorrhoeae (Neisseria gonocossus) were tested for antimicrobial susceptibility using agar dilution as described by the Clinical and Laboratory Standards Institute (CLSI), see reference (4).
The concentrations tested for each compound encompass the reported interpretive breakpoints and consist of 8 or more doubling dilutions, ensuring that there is one dilution below the lowest value of QC.
GC agar base +1% defined growth supplement.
Initial screening strains: Neisseria gonorrhoeae CDC panel consisting of 48 isolates. The strains were provided by Clinical and Environmental Microbiology Branch, Division of Healthcare Quality Promotion, CDC (Atlanta, US).
Dilution scheme for reference method: Prepare intermediate 100× antimicrobial agent solutions by making successive serial twofold dilutions. Then, add one part of the 100× antimicrobial solution to […] of molten agar. Plates containing no antimicrobial agent solutions are made for use as growth controls. It is important that no longer than one hour elapses between the time that the stock solution is thawed, the dilutions are prepared and added to the base medium and the plates are poured, see reference (5).
• Add appropriate dilutions of antimicrobial solution to molten test agars that have been allowed to equilibrate in a water bath to 50° C. • Mix the agar and antimicrobial solution thoroughly and pour (20 mL) into Petri dishes on a level surface. Pour quickly after mixing to prevent cooling and partial solidification in the mixing container. Avoid generating bubbles when mixing. • Allow the agar to solidify at room temperature and store them in sealed plastic bags at 2 to 8° C. for up to five days. Preferably use with 24 hours. • Allow plates stored at 2 to 8° C. to equilibrate to room temperature before use. Make certain that the agar surface is dry before inoculating the plates. If necessary, place the plates in an incubator or laminar flow hood for approximately 30 minutes with their lids ajar to hasten drying of the agar surface.
Inoculum preparation: Prepare a standardized inoculum for the agar dilution method by suspending isolated colonies of Neisseria gonorrhoeae selected from an 18-24 hour-old chocolate agar plate directly in Mueller Hinton Broth (MHB) to achieve the density equivalent to a 0.5 McFarland standard and adjusted to obtain a cell density of ˜1-2×10^8 CFU/mL. For N. gonorrhoeae, the McFarland solutions are made at a reading of ˜0.80 in densitometer (Grant Instruments DEN-1B Densitometer) because these values have been evaluated and correspond to the desired CFU/mL count.
Dilution of inoculum suspension: Cultures adjusted to the 0.5 McFarland standard contain approximately 1 to 2×10^8 CFU/mL with most species, and the final inoculum required is 10^4 CFU per spot. When using replicators with 3-mm pins that deliver ˜2.5 μL, dilute the 0.5 McFarland suspension 1:10 in sterile MHB to obtain a concentration of 10^7 CFU/mL. The final inoculum on the agar will be approximately 10^4 CFU per spot. Use the adjusted suspensions for final inoculation within 60 minutes of preparation, see reference (5).
The following procedure was followed: • Arrange the tubes containing the adjusted and diluted bacterial suspensions (10^7 CFU/mL) in order in a rack. Place an aliquot of each well-mixed suspension into the corresponding well in the replicator inoculum block (if being used). • Mark the agar plates for orientation of the inoculum spots. • Apply an aliquot of each inoculum (2.5 μL) to the agar surface, either with an inocula-replicating device or pipette, to obtain a final concentration of ˜10^4 CFU/spot. • Inoculate a growth-control plate (no antimicrobial agent) first and then, starting with the lowest concentration, inoculate the plates containing the different antimicrobial concentrations. […]

rats = conditions: cited from earlier work; for LD50, median: median of the studies
mice = conditions: cited from earlier work
rabbits = conditions: p.o.; cited from earlier work
[2] = Neisseria gonorrhoeae strain CDC # 165
[3] = Neisseria gonorrhoeae strain CDC # 166
[4] = Neisseria gonorrhoeae strain CDC # 167
[5] = Neisseria gonorrhoeae strain CDC # 169
[6] = Neisseria gonorrhoeae strain CDC # 170
[7] = Neisseria gonorrhoeae strain CDC # 171
[8] = Neisseria gonorrhoeae strain CDC # 172
[9] = Neisseria gonorrhoeae strain CDC # 173
[10] = Neisseria gonorrhoeae strain CDC # 174
[11] = Neisseria gonorrhoeae strain CDC # 175
[12] = Neisseria gonorrhoeae strain CDC # 176
[13] = Neisseria gonorrhoeae strain CDC # 177
[14] = Neisseria gonorrhoeae strain CDC # 178
[15] = Neisseria gonorrhoeae strain CDC # 179
[16] = Neisseria gonorrhoeae strain CDC # 180
[17] = Neisseria gonorrhoeae strain CDC # 181
[18] = Neisseria gonorrhoeae strain CDC # 182
[19] = Neisseria gonorrhoeae strain CDC # 183
[20] = Neisseria gonorrhoeae strain CDC # 184
[21] = Neisseria gonorrhoeae strain CDC # 185
[22] = Neisseria gonorrhoeae strain CDC # 186
[23] = Neisseria gonorrhoeae strain CDC # 187
[24] = Neisseria gonorrhoeae strain CDC # 188
[25] = Neisseria gonorrhoeae strain CDC # 189
[26] = Neisseria gonorrhoeae strain CDC # 190
[27] = Neisseria gonorrhoeae strain CDC # 191
[28] = Neisseria gonorrhoeae strain CDC # 192
[29] = Neisseria gonorrhoeae strain CDC # 193
[30] = Neisseria gonorrhoeae strain CDC # 194
[31] = Neisseria gonorrhoeae strain CDC # 195
[32] = Neisseria gonorrhoeae strain CDC # 196
[33] = Neisseria gonorrhoeae strain CDC # 198
[34] = Neisseria gonorrhoeae strain CDC # 199
[35] = Neisseria gonorrhoeae strain CDC # 200
[36] = Neisseria gonorrhoeae strain CDC # 201
[37] = Neisseria gonorrhoeae strain CDC # 202
[38] = Neisseria gonorrhoeae strain CDC # 203
[39] = Neisseria gonorrhoeae strain CDC # 204
[40] = Neisseria gonorrhoeae strain CDC # 205
[41] = Neisseria gonorrhoeae strain CDC # 206
[42] = Neisseria gonorrhoeae strain CDC # 207
[43] = Neisseria gonorrhoeae strain CDC # 208
[44] = Neisseria gonorrhoeae strain CDC # 209
[45] = Neisseria gonorrhoeae strain CDC # 210
[46] = Neisseria gonorrhoeae strain CDC # 211
[47] = Neisseria gonorrhoeae strain CDC # 212
[48] = Neisseria gonorrhoeae strain CDC # 213
[49] = Neisseria gonorrhoeae strain CDC # 214

In the case of `Cc1cc(C(C#N)c2ccc(Cl)cc2)c(Cl)cc1NC(=O)c1cc(I)cc(I)c1O` (centres unmarked) [Closantel, closantel], the MIC [1, 2] is reported as 8 µg/mL (≈ 12.1 µM), the MIC [1, 3] is reported as no more than 0.25 µg/mL and the MIC [1, 4] is reported as no more than 0.25 µg/mL. For the same molecule, the MIC [1, 5] was no more than 0.25 µg/mL, the MIC [1, 6] was no more than 0.25 µg/mL and the MIC [1, 7] was no more than 0.25 µg/mL. The MIC [1, 8] was no more than 0.25 µg/mL, the MIC [1, 9] was 0.5 µg/mL (≈ 0.754 µM) and the MIC [1, 10] was no more than 0.25 µg/mL. It also gave an MIC [1, 11] of no more than 0.25 µg/mL, an MIC [1, 12] of no more than 0.25 µg/mL and an MIC [1, 13] of 4 µg/mL (≈ 6.03 µM). The MIC [1, 14] was no more than 0.25 µg/mL, the MIC [1, 15] was no more than 0.25 µg/mL and the MIC [1, 16] was no more than 0.25 µg/mL. For the same molecule, the MIC [1, 17] was no more than 0.25 µg/mL, the MIC [1, 18] was no more than 0.25 µg/mL and the MIC [1, 19] was no more than 0.25 µg/mL. The MIC [1, 20] was no more than 0.25 µg/mL, the MIC [1, 21] was no more than 0.25 µg/mL and the MIC [1, 22] was no more than 0.25 µg/mL. It also gave an MIC [1, 23] of no more than 0.25 µg/mL, an MIC [1, 24] of no more than 0.25 µg/mL and an MIC [1, 25] of no more than 0.25 µg/mL. It also gave an MIC [1, 26] of no more than 0.25 µg/mL, an MIC [1, 27] of no more than 0.25 µg/mL and an MIC [1, 28] of no more than 0.25 µg/mL. For the same molecule, the MIC [1, 29] was no more than 0.25 µg/mL, the MIC [1, 30] was no more than 0.25 µg/mL and the MIC [1, 31] was no more than 0.25 µg/mL. The MIC [1, 32] was no more than 0.25 µg/mL, the MIC [1, 33] was no more than 0.25 µg/mL and the MIC [1, 34] was no more than 0.25 µg/mL. The MIC [1, 35] was no more than 0.25 µg/mL, the MIC [1, 36] was no more than 0.25 µg/mL and the MIC [1, 37] was no more than 0.25 µg/mL. For the same molecule, the MIC [1, 38] was no more than 0.25 µg/mL, the MIC [1, 39] was 0.5 µg/mL (≈ 0.754 µM) and the MIC [1, 40] was no more than 0.25 µg/mL. For the same molecule, the MIC [1, 41] was no more than 0.25 µg/mL, the MIC [1, 42] was no more than 0.25 µg/mL and the MIC [1, 43] was no more than 0.25 µg/mL. The MIC [1, 44] was no more than 0.25 µg/mL, the MIC [1, 45] was no more than 0.25 µg/mL and the MIC [1, 46] was no more than 0.25 µg/mL. For the same molecule, the MIC [1, 47] was no more than 0.25 µg/mL, the MIC [1, 48] was no more than 0.25 µg/mL and the MIC [1, 49] was no more than 0.25 µg/mL. For the same molecule, the “in vitro activity (in words)” value [1] was “Good in vitro activity”, the “LD50, median” value (rats; p.o.) was 302 mg/kg and the LD50 (rats; p.o.) was 262 to 342 mg/kg. For the same molecule, the LD50 (rats; s.c.) was 67 mg/kg, the LD50 (mice; i.m.) was 57 mg/kg and the LD50 (mice; p.o.) was 331 mg/kg.

For `O=C(Nc1cc(Cl)cc(Cl)c1O)c1c(O)c(Cl)cc(Cl)c1Cl` [Oxyclosanide, oxyclozanide], the LD50 (rabbits) is given as 3200 mg/kg, the MIC [1, 2] is given as no more than 0.25 µg/mL and the MIC [1, 3] is given as no more than 0.25 µg/mL. The MIC [1, 4] was no more than 0.25 µg/mL, the MIC [1, 5] was no more than 0.25 µg/mL and the MIC [1, 6] was no more than 0.25 µg/mL. For the same molecule, the MIC [1, 7] was no more than 0.25 µg/mL, the MIC [1, 8] was no more than 0.25 µg/mL and the MIC [1, 9] was no more than 0.25 µg/mL. For the same molecule, the MIC [1, 10] was no more than 0.25 µg/mL, the MIC [1, 11] was no more than 0.25 µg/mL and the MIC [1, 12] was no more than 0.25 µg/mL. It also gave an MIC [1, 13] of no more than 0.25 µg/mL, an MIC [1, 14] of no more than 0.25 µg/mL and an MIC [1, 15] of no more than 0.25 µg/mL. It also gave an MIC [1, 16] of no more than 0.25 µg/mL, an MIC [1, 17] of no more than 0.25 µg/mL and an MIC [1, 18] of no more than 0.25 µg/mL. For the same molecule, the MIC [1, 19] was no more than 0.25 µg/mL, the MIC [1, 20] was no more than 0.25 µg/mL and the MIC [1, 21] was no more than 0.25 µg/mL. The MIC [1, 22] was no more than 0.25 µg/mL, the MIC [1, 23] was no more than 0.25 µg/mL and the MIC [1, 24] was no more than 0.25 µg/mL. For the same molecule, the MIC [1, 25] was no more than 0.25 µg/mL, the MIC [1, 26] was no more than 0.25 µg/mL and the MIC [1, 27] was no more than 0.25 µg/mL. The MIC [1, 28] was no more than 0.25 µg/mL, the MIC [1, 29] was no more than 0.25 µg/mL and the MIC [1, 30] was no more than 0.25 µg/mL. For the same molecule, the MIC [1, 31] was no more than 0.25 µg/mL, the MIC [1, 32] was no more than 0.25 µg/mL and the MIC [1, 33] was no more than 0.25 µg/mL. For the same molecule, the MIC [1, 34] was no more than 0.25 µg/mL, the MIC [1, 35] was no more than 0.25 µg/mL and the MIC [1, 36] was no more than 0.25 µg/mL. The MIC [1, 37] was no more than 0.25 µg/mL, the MIC [1, 38] was no more than 0.25 µg/mL and the MIC [1, 39] was no more than 0.25 µg/mL. For the same molecule, the MIC [1, 40] was no more than 0.25 µg/mL, the MIC [1, 41] was no more than 0.25 µg/mL and the MIC [1, 42] was no more than 0.25 µg/mL. The MIC [1, 43] was no more than 0.25 µg/mL, the MIC [1, 44] was no more than 0.25 µg/mL and the MIC [1, 45] was no more than 0.25 µg/mL. It also gave an MIC [1, 46] of no more than 0.25 µg/mL, an MIC [1, 47] of no more than 0.25 µg/mL and an MIC [1, 48] of no more than 0.25 µg/mL. The MIC [1, 49] was no more than 0.25 µg/mL, the “in vitro activity (in words)” value [1] was “Good in vitro activity” and the “LD50, median” value (rats; p.o.) was 2250 mg/kg. For the same molecule, the LD50 (rats; p.o.) was 980 to 3519 mg/kg and the LD50 (mice; p.o.) was 300 mg/kg.
